Results as given in ChEMBL document CHEMBL3763080, “Design and synthesis of a C7-aryl piperlongumine derivative with potent antimicrotubule and mutant p53-reactivating properties” (Eur J Med Chem, 2016).
The source made the active and inactive calls. The calls are words filed in the database; no cut-off is given here.

Columns and labels:
SK-BR-3 = experiment: Induction of microtubule destabilization in human SKBR3 cells assessed as soluble fraction of protein at 2.5 uM after 24 hrs by Western blot analysis; format: cell-based
[1] = system: Cellular tumor antigen p53 (Homo sapiens), P04637 [R175H]; experiment: Reactivation of human p53 R175H mutant in human SKBR3 cells assessed as upregulation of PUMA expression after 24 hrs by Western blot analysis; format: cell-based; details: SK-BR-3
Tubulin (Bos taurus) = Tubulin (Bos taurus) (UniProt Q6B856+Q862L2+Q862F3); experiment: Inhibition of bovine brain tubulin polymerization measured every 1 min for 30 mins by fluorescence assay
[2] = system: Cellular tumor antigen p53 (Homo sapiens), P04637 [R175H]; experiment: Reactivation of human p53 R175H mutant in SKBR3 cells assessed as increase in p53 DNA binding at 5 uM by non biotinylated double stranded DNA probe-based electrophoretic-mobility shift assay; format: cell-based; details: SK-BR-3
[3] = system: Cellular tumor antigen p53 (Homo sapiens), P04637 [R175H]; experiment: Reactivation of human p53 R175H mutant in human SKBR3 cells assessed as decrease in mutant p53 expression after 12 hrs by immunoprecipitation/Western blot analysis; format: cell-based; set-up: scale not given: the % may be the effect or the level left; details: SK-BR-3
[4] = system: Cellular tumor antigen p53 (Homo sapiens), P04637 [R175H]; experiment: Reactivation of human p53 R175H mutant in human SKBR3 cells assessed as cell cycle arrest at G2/M phase at 2.5 uM after 24 hrs by propidium iodide staining based flow cytometric analysis; details: SK-BR-3
[5] = system: Cellular tumor antigen p53 (Homo sapiens), P04637 [R175H]; experiment: Reactivation of p53 R175H mutant in human SKBR3 cells assessed as accumulation of wild type p53 at 5 uM after 12 hrs by DAPI staining based confocal/multiphoton microscopic analysis; format: cell-based; details: SK-BR-3
[6] = system: Cellular tumor antigen p53 (Homo sapiens), P04637 [R175H]; experiment: Reactivation of human p53 R175H mutant in human SKBR3 cells assessed as upregulation of MDM2 expression after 24 hrs by Western blot analysis; format: cell-based; details: SK-BR-3
[7] = system: Cellular tumor antigen p53 (Homo sapiens), P04637 [R175H]; experiment: Reactivation of human p53 R175H mutant in human SKBR3 cells assessed as upregulation of p21cip1 expression after 24 hrs by Western blot analysis; format: cell-based; details: SK-BR-3
[8] = system: Cellular tumor antigen p53 (Homo sapiens), P04637 [R175H]; experiment: Reactivation of human p53 R175H mutant in human SKBR3 cells assessed as upregulation of cyclin B1 expression at 2.5 uM after 24 hrs by Western blot analysis; format: cell-based; details: SK-BR-3
[9] = system: Cellular tumor antigen p53 (Homo sapiens), P04637 [R175H]; experiment: Reactivation of human p53 R175H mutant in human SKBR3 cells assessed as downregulation of CDC25C expression at 2.5 uM after 24 hrs by Western blot analysis; format: cell-based; details: SK-BR-3
[10] = system: Cellular tumor antigen p53 (Homo sapiens), P04637 [R175H]; experiment: Reactivation of p53 R175H mutant in human SKBR3 cells at 5 uM after 12 hrs by flow cytometric analysis; format: cell-based; details: SK-BR-3
[11] = system: Cellular tumor antigen p53 (Homo sapiens), P04637 [R175H]; experiment: Reactivation of human p53 R175H mutant in SKBR3 cells assessed as increase in p53 DNA binding at 5 uM by biotinylated double stranded DNA probe-based electrophoretic-mobility shift assay; format: cell-based; details: SK-BR-3
[12] = system: Cellular tumor antigen p53 (Homo sapiens), P04637 [R175H]; experiment: Reactivation of human p53 R175H mutant in human SKBR3 cells assessed as upregulation of Aurora kinase A expression at 2.5 uM after 24 hrs by Western blot analysis; format: cell-based; details: SK-BR-3
[13] = system: Cellular tumor antigen p53 (Homo sapiens), P04637 [R175H]; experiment: Reactivation of human p53 R175H mutant in human SKBR3 cells assessed as increase in wild type p53 expression after 12 hrs by immunoprecipitation/Western blot analysis; format: cell-based; details: SK-BR-3
[14] = Cytotoxicity against human HT1080 cells assessed as cell viability after 72 hrs by resazurin reduction assay; format: functional, cell-based; details: HT-1080, 72 h
T98G = experiment: Cytotoxicity against human T98G cells assessed as cell viability after 72 hrs by resazurin reduction assay; format: functional, cell-based
HT-29 = experiment: Cytotoxicity against human HT-29 cells assessed as cell viability after 72 hrs by resazurin reduction assay; format: functional, cell-based; details: HT-29, 72 h
[15] = Cytotoxicity against human SKBR3 cells assessed as cell viability after 72 hrs by resazurin reduction assay; format: functional, cell-based; details: SK-BR-3, 72 h
[16] = Cytotoxicity against human GBM10 cells assessed as cell viability after 72 hrs by resazurin reduction assay; format: functional, cell-based; details: GBM10, 72 h
[17] = Cytotoxicity against human SF188 cells assessed as cell viability after 72 hrs by resazurin reduction assay; format: functional, cell-based; details: SF-188, 72 h
A549 = experiment: Cytotoxicity against human A549 cells assessed as cell viability after 72 hrs by resazurin reduction assay; format: functional, cell-based; details: A549, 72 h
MCF7 = experiment: Cytotoxicity against human MCF7 cells assessed as cell viability after 72 hrs by resazurin reduction assay; format: functional, cell-based; details: MCF7, 72 h

SMILES | inhibition (Tubulin (Bos taurus)) | IC50 [14] | IC50 (T98G) | IC50 (HT-29) | IC50 [15] | IC50 [16] | IC50 [17] | IC50 (A549) | IC50 (MCF7) | further results
COC(=O)Nc1nc2cc(C(=O)c3cccs3)ccc2[nH]1 | – | – | – | – | – | – | – | – | – | Activity (SK-BR-3): Active
COc1ccc(/C(=C\c2cc(OC)c(OC)c(OC)c2)C(=O)N2CCC=CC2=O)cc1 | Dose-dependent effect | – | – | – | – | – | – | – | – | Activity [1]: Dose-dependent effect; Activity [2]: inactive; Activity [3]: 90%; Activity [4]: > 60%; Activity [5]: Active; Activity [6]: Dose-dependent effect; Activity [7]: Dose-dependent effect; Activity [8]: Active; Activity [9]: Active; Activity [10]: Active; Activity [11]: Active; Activity [12]: Active; Activity [13]: 80%
COc1ccc(/C=C\c2cc(OC)c(OC)c(OC)c2)cc1O [COMBRETASTATIN A4] | Dose-dependent effect | 70 nM | 11 nM | 420 nM | 8 nM | 52 nM | 21 nM | 3 nM | 42 nM | –
COc1cc(/C=C/C(=O)N2CCC=CC2=O)cc(OC)c1OC [PIPLARTINE] | – | 3430 nM | 4920 nM | 5490 nM | 4040 nM | 3810 nM | 3900 nM | 6540 nM | 6140 nM | –
